Results: US10597388B2, “Pyridazinone herbicides” (FMC CORPORATION, priority 2014, dated 2020)

Assays:
Assay in all cases: Test D controlled growth environment herbicide test, pre- and postemergence
Type in all cases: in vivo
[1] = tested on: Russian thistle (Salsola kali)
Outline: (§1)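 Rating is visual, 0–100 scale (100 = complete control), made against untreated plants 14–21 d after treatment in controlled growth conditions. Postemergence sprays went onto 1- to 4-leaf plants in peat medium; preemergence sprays onto silt loam after sowing; formulation included a surfactant.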

[2] = tested on: blackgrass (Alopecurus myosuroides)
Outline: as §1

[3] = tested on: bluegrass (annual bluegrass, Poa annua)
Outline: as §1

[4] = tested on: buckwheat, wild (wild buckwheat, Polygonum convolvulus)
Outline: as §1

[5] = tested on: canarygrass (Phalaris minor)
Outline: as §1

[6] = tested on: chickweed (common chickweed, Stellaria media)
Outline: as §1

[7] = tested on: field poppy (Papaver rhoeas)
Outline: as §1

[8] = tested on: foxtail, green (green foxtail, Setaria viridis)
Outline: as §1

[9] = tested on: galium (catchweed bedstraw, Galium aparine)
Outline: as §1

kochia (Kochia scoparia) = tested on: kochia (Kochia scoparia)
Outline: as §1

[10] = tested on: pigweed (Amaranthus retroflexus)
Outline: as §1

[11] = tested on: ryegrass, Italian (Italian ryegrass, Lolium multiflorum)
Outline: as §1

[12] = tested on: wheat, winter (winter wheat, Triticum aestivum)
Outline: as §1

[13] = Postemergence, 31 g ai/ha, scale 0 to 100 (0 no effect, 100 complete control)
[14] = Postemergence, 125 g ai/ha, visual rating on scale 0 (no effect) to 100 (complete control), 14 to 21 d
[15] = Postemergence, 250 g ai/ha, scale 0 to 100 (0 no effect, 100 complete control)
[16] = Preemergence, 62 g ai/ha, scale 0 to 100 (0 no effect, 100 complete control)
[17] = Preemergence, 125 g ai/ha, scale 0 to 100 (0 no effect, 100 complete control)
[18] = Preemergence, 250 g ai/ha, scale 0 to 100 (0 no effect, 100 complete control)
[19] = postemergence, 62 g ai/ha, scale 0 to 100, 0 no effect, 100 complete control

Cc1ccc(-c2c(O)c(Br)nn(C)c2=O)c2ccccc12 [Compound 52]
Russian Thistle plant response rating [1, 13]: 20 | Plant response rating, Russian Thistle [1, 14]: 45 | Plant response rating, Russian Thistle [1, 15]: 55 | Plant response rating (scale of 0 to 100), Russian Thistle ([1]; Preemergence, 31 g ai/ha): 0 | Plant response rating, Russian Thistle [1, 16]: 0 | Plant response rating, Russian Thistle [1, 17]: 0 | Plant response rating, Russian Thistle [1, 18]: 0 | Plant response rating, Russian Thistle [1, 19]: 35 | Blackgrass plant response rating [2, 13]: 10 | Plant response rating, Blackgrass [2, 14]: 15 | Plant response rating, Blackgrass [2, 15]: 40 | Plant response rating (scale of 0 to 100), Blackgrass ([2]; Preemergence, 31 g ai/ha): 20 | Plant response rating, Blackgrass [2, 16]: 20 | Plant response rating, Blackgrass [2, 17]: 65 | Plant response rating, Blackgrass [2, 18]: 65 | Plant response rating, Blackgrass [2, 19]: 15 | Bluegrass plant response rating [3, 13]: 5 | Plant response rating, Bluegrass [3, 14]: 30 | Plant response rating, Bluegrass [3, 15]: 30 | Plant response rating (scale of 0 to 100), Bluegrass ([3]; Preemergence, 31 g ai/ha): 0 | Plant response rating, Bluegrass [3, 16]: 10 | Plant response rating, Bluegrass [3, 17]: 25 | Plant response rating, Bluegrass [3, 18]: 35 | Plant response rating, Bluegrass [3, 19]: 5 | Buckwheat, Wild plant response rating [4, 13]: 100 | Plant response rating, Buckwheat, Wild [4, 14]: 100 | Plant response rating, Buckwheat, Wild [4, 15]: 100 | Plant response rating (scale of 0 to 100), Buckwheat, Wild ([4]; Preemergence, 31 g ai/ha): 20 | Plant response rating, Buckwheat, Wild [4, 16]: 20 | Plant response rating, Buckwheat, Wild [4, 17]: 55 | Plant response rating, Buckwheat, Wild [4, 18]: 100 | Plant response rating, Buckwheat, Wild [4, 19]: 100 | Canarygrass plant response rating [5, 13]: 0 | Plant response rating, Canarygrass [5, 14]: 0 | Plant response rating, Canarygrass [5, 15]: 0 | Plant response rating (scale of 0 to 100), Canarygrass ([5]; Preemergence, 31 g ai/ha): 20 | Plant response rating, Canarygrass [5, 16]: 25 | Plant response rating, Canarygrass [5, 17]: 25 | Plant response rating, Canarygrass [5, 18]: 35 | Plant response rating, Canarygrass [5, 19]: 0 | Chickweed plant response rating [6, 13]: 90 | Plant response rating, Chickweed [6, 14]: 90 | Plant response rating, Chickweed [6, 15]: 100 | Plant response rating (scale of 0 to 100), Chickweed ([6]; Preemergence, 31 g ai/ha): 98 | Plant response rating, Chickweed [6, 16]: 98 | Plant response rating, Chickweed [6, 17]: 100 | Plant response rating, Chickweed [6, 18]: 100 | Plant response rating, Chickweed [6, 19]: 100 | Field Poppy plant response rating [7, 13]: 85 | Plant response rating, Field Poppy [7, 14]: 90 | Plant response rating, Field Poppy [7, 15]: 100 | Plant response rating (scale of 0 to 100), Field Poppy ([7]; Preemergence, 31 g ai/ha): 0 | Plant response rating, Field Poppy [7, 16]: 0 | Plant response rating, Field Poppy [7, 17]: 100 | Plant response rating, Field Poppy [7, 18]: 100 | Plant response rating, Field Poppy [7, 19]: 80 | Foxtail, Green plant response rating [8, 13]: 5 | Plant response rating, Foxtail, Green [8, 14]: 10 | Plant response rating, Foxtail, Green [8, 15]: 40 | Plant response rating (scale of 0 to 100), Foxtail, Green ([8]; Preemergence, 31 g ai/ha): 0 | Plant response rating, Foxtail, Green [8, 16]: 0 | Plant response rating, Foxtail, Green [8, 17]: 15 | Plant response rating, Foxtail, Green [8, 18]: 35 | Plant response rating, Foxtail, Green [8, 19]: 5 | Galium plant response rating [9, 13]: 90 | Plant response rating, Galium [9, 14]: 98 | Plant response rating, Galium [9, 15]: 100 | Plant response rating (scale of 0 to 100), Galium ([9]; Preemergence, 31 g ai/ha): 70 | Plant response rating, Galium [9, 16]: 100 | Plant response rating, Galium [9, 17]: 90 | Plant response rating, Galium [9, 18]: 95 | Plant response rating, Galium [9, 19]: 95 | Kochia plant response rating (kochia (Kochia scoparia); [13]): 0 | Plant response rating, Kochia (kochia (Kochia scoparia); [14]): 55 | Plant response rating, Kochia (kochia (Kochia scoparia); [15]): 65 | Plant response rating (scale of 0 to 100), Kochia (kochia (Kochia scoparia); Preemergence, 31 g ai/ha): 15 | Plant response rating, Kochia (kochia (Kochia scoparia); [16]): 35 | Plant response rating, Kochia (kochia (Kochia scoparia); [17]): 40 | Plant response rating, Kochia (kochia (Kochia scoparia); [18]): 90 | Plant response rating, Kochia (kochia (Kochia scoparia); [19]): 20 | Pigweed plant response rating [10, 13]: 35 | Plant response rating, Pigweed [10, 14]: 75 | Plant response rating, Pigweed [10, 15]: 80 | Plant response rating (scale of 0 to 100), Pigweed ([10]; Preemergence, 31 g ai/ha): 60 | Plant response rating, Pigweed [10, 16]: 55 | Plant response rating, Pigweed [10, 17]: 65 | Plant response rating, Pigweed [10, 18]: 90 | Plant response rating, Pigweed [10, 19]: 40 | Ryegrass, Italian plant response rating [11, 13]: 40 | Plant response rating, Ryegrass, Italian [11, 14]: 75 | Plant response rating, Ryegrass, Italian [11, 15]: 80 | Plant response rating (scale of 0 to 100), Ryegrass, Italian ([11]; Preemergence, 31 g ai/ha): 85 | Plant response rating, Ryegrass, Italian [11, 16]: 85 | Plant response rating, Ryegrass, Italian [11, 17]: 100 | Plant response rating, Ryegrass, Italian [11, 18]: 98 | Plant response rating, Ryegrass, Italian [11, 19]: 50 | Wheat, Winter plant response rating [12, 13]: 0 | Plant response rating, Wheat, Winter [12, 14]: 15 | Plant response rating, Wheat, Winter [12, 15]: 15 | Plant response rating (scale of 0 to 100), Wheat, Winter ([12]; Preemergence, 31 g ai/ha): 0 | Plant response rating, Wheat, Winter [12, 16]: 0 | Plant response rating, Wheat, Winter [12, 17]: 0 | Plant response rating, Wheat, Winter [12, 18]: 0 | Plant response rating, Wheat, Winter [12, 19]: 10
